Values after ≈ are worked out from the molar mass of the structure shown. Where two headings read alike, the source gives them in different places. Where a SMILES comes first, the peptide text is derived from it. [ ]: non-standard residue; d: D form.
Columns and labels:
[1] = test system: MDRPA 2002; type: cell-based, Pseudomonas aeruginosa
Outline: (§1)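 Each strain is brought to 2×10^6 CFU in nutrient-sufficient Mueller-Hinton medium and dispensed into wells. Peptide solutions, stepwise diluted 2:1 in the same medium, are then added. The minimal concentration preventing growth gives the MIC.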

[2] = test system: MDRPA 2003; type: cell-based, Pseudomonas aeruginosa
Outline: as §1

[3] = test system: A. baumannii; assay: MIC of antibiotic during combined treatment with antimicrobial peptide; type: cell-based, Acinetobacter baumannii; settings: for Antibiotic MIC, Erythromycin / Antibiotic MIC, Linezolid / Antibiotic MIC, Vancomycin: A. baumannii
Outline: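 Checkerboard-type MIC of peptide–antibiotic mixtures in MH medium: the antibiotic was serially diluted in MH medium and added to wells, then the reversed arrangement was also tested.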

[4] = test system: E. coli; type: cell-based, Escherichia coli; settings: E. coli
Outline: (§2)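 Strains in MH medium at 2×10^6 CFU/ml were mixed with peptide diluted stepwise (2:1) from its MIC, then antibiotic dilutions in MH medium were added to give the antibiotic MIC. The reversed set-up, peptide titrated against fixed antibiotic, gave the peptide MIC.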

[5] = test system: MDREC 1229; type: cell-based, Escherichia coli
Outline: as §2

[6] = test system: B. subtilis; assay: microbe, parasite or virus in culture; type: cell-based, Bacillus subtilis
Outline: as §1

[7] = test system: MDRAB 12035; assay: MIC of antibiotic during combined treatment with antimicrobial peptide; type: cell-based, Acinetobacter baumannii
Outline: as §2

[8] = test system: multi-drug resistant bacteria; assay: MIC, summary statements for multi-drug resistant bacteria; type: cell-based
Outline: as §1

[9] = test system: MDRAB 12035; assay: microbe, parasite or virus in culture; type: cell-based, Acinetobacter baumannii
Outline: as §1

[10] = test system: A. baumannii; assay: microbe, parasite or virus in culture; type: cell-based, Acinetobacter baumannii
Outline: as §1

[11] = combined with peptide at 2 μg/ml
[12] = combined with peptide at 4 μg/ml
[13] = combined with peptide at 6 μg/ml
[14] = combined with peptide at 8 μg/ml
[15] = combined with peptide at 16 μg/ml
[16] = combined with peptide at 32 μg/ml
[17] = combined with peptide at 64 μg/ml
[18] = peptide treatment concentration 1 μg/ml
[19] = peptide treatment concentration 2 μg/ml
[20] = peptide treatment concentration 4 μg/ml
[21] = peptide treatment concentration 6 μg/ml
[22] = peptide treatment concentration 8 μg/ml
[23] = peptide treatment concentration 16 μg/ml
[24] = peptide treatment concentration 32 μg/ml
[25] = peptide treatment concentration 64 μg/ml

CC[C@H](C)[C@H](NC(=O)[C@H](CCCCN)NC(=O)[C@H](Cc1c[nH]c2ccccc12)NC(=O)[C@@H](N)CCCNC(=N)N)C(=O)N[C@@H](Cc1ccccc1)C(=O)N[C@@H](CCCCN)C(=O)N[C@@H](CCCCN)C(=O)N[C@H](C(=O)N[C@H](CC(C)C)C(=O)N[C@@H](CCCCN)C(=O)N[C@@H](CC(C)C)C(=O)N[C@@H](CC(C)C)C(=O)N[C@@H](Cc1c[nH]cn1)C(=O)N[C@@H](CCC(=O)O)C(=O)N[C@@H](C)C(=O)N[C@@H](CCCCN)C(=O)N[C@@H](CCCCN)C(=O)N[C@@H](Cc1c[nH]c2ccccc12)C(N)=O)[C@@H](C)CC [PapMA-24, RWK IFK KIl KLL HEA KKW-NH2] (H-RWKIFKKI[dL]KLLHEAKKW-NH2; N-terminus assumed)
Minimal inhibitory concentration MIC [1]: 64 µg/mL (≈ 27.1 µM)
Minimal inhibitory concentration MIC [2]: 64 µg/mL (≈ 27.1 µM)
Synergistic effect of antibacterial activity with existing antibiotics compared with PapMA-1 ([3]; A. baumannii and MDRAB 12035): level similar to that of PapMA-1 peptide
Antibiotic MIC, Erythromycin [3, 11]: 32 µg/mL
Antibiotic MIC, Linezolid [3, 11]: >128 µg/mL
Antibiotic MIC, Vancomycin [3, 11]: 128 µg/mL
Antibiotic MIC, Erythromycin [3, 12]: 8 µg/mL
Antibiotic MIC, Linezolid [3, 12]: 64 µg/mL
Antibiotic MIC, Vancomycin [3, 12]: 64 µg/mL
Antibiotic MIC, Erythromycin [3, 13]: 2 µg/mL
Antibiotic MIC, Linezolid [3, 13]: 8 µg/mL
Antibiotic MIC, Vancomycin [3, 13]: 16 µg/mL
Antibiotic MIC, Erythromycin [3, 14]: 0.5 µg/mL
Antibiotic MIC, Linezolid [3, 14]: 4 µg/mL
Antibiotic MIC, Vancomycin [3, 14]: 8 µg/mL
Antibiotic MIC, Erythromycin [3, 15]: 0 µg/mL
Antibiotic MIC, Linezolid [3, 15]: 0 µg/mL
Antibiotic MIC, Vancomycin [3, 15]: 0 µg/mL
Antibiotic MIC, Erythromycin [3, 16]: 0 µg/mL
Antibiotic MIC, Linezolid [3, 16]: 0 µg/mL
Antibiotic MIC, Vancomycin [3, 16]: 0 µg/mL
Antibiotic MIC, Erythromycin [3, 17]: 0 µg/mL
Antibiotic MIC, Linezolid [3, 17]: 0 µg/mL
Antibiotic MIC, Vancomycin [3, 17]: 0 µg/mL
Peptide MIC ([4]; with Erythromycin […] (Conc./MIC 1)): 0 µg/mL
Peptide MIC ([4]; with Linezolid […] (Conc./MIC 1)): 0 µg/mL
Peptide MIC ([4]; with Vancomycin 1024 μg/ml (Conc./MIC 1)): 0 µg/mL
Peptide MIC during treatment with antibiotic ([5]; erythromycin 32 μg/ml (Conc./MIC 1/8)): 4 µg/mL
Peptide MIC during treatment with antibiotic ([5]; erythromycin 64 μg/ml (Conc./MIC 1/4)): 2 µg/mL
Peptide MIC during treatment with antibiotic ([5]; erythromycin […] (Conc./MIC 1)): 0 µg/mL
Peptide MIC during treatment with antibiotic ([5]; erythromycin […] (Conc./MIC 1/2)): 1 µg/mL
Peptide MIC during treatment with antibiotic ([5]; linezolid 64 μg/ml (Conc./MIC 1/8)): 4 µg/mL
Peptide MIC during treatment with antibiotic ([5]; linezolid 512 μg/ml (Conc./MIC 1)): 0 µg/mL
Peptide MIC during treatment with antibiotic ([5]; linezolid […] (Conc./MIC 1/2)): 1 µg/mL
Peptide MIC during treatment with antibiotic ([5]; linezolid […] (Conc./MIC 1/4)): 2 µg/mL
Peptide MIC during treatment with antibiotic ([5]; vancomycin 512 μg/ml (Conc./MIC 1/2)): 2 µg/mL
Peptide MIC during treatment with antibiotic ([5]; vancomycin 1024 μg/ml (Conc./MIC 1)): 1 µg/mL
Peptide MIC during treatment with antibiotic ([5]; vancomycin […] (Conc./MIC 1/4)): 4 µg/mL
Peptide MIC during treatment with antibiotic ([5]; vancomycin […] (Conc./MIC 1/8)): 8 µg/mL
Minimal inhibitory concentration MIC [6]: >128 µg/mL
Erythromycin MIC during combined treatment with peptide [7, 18]: 32 µg/mL
Linezolid MIC during combined treatment with peptide [7, 18]: >128 µg/mL
Vancomycin MIC during combined treatment with peptide [7, 18]: >128 µg/mL
Erythromycin MIC during combined treatment with peptide [7, 19]: 32 µg/mL
Linezolid MIC during combined treatment with peptide [7, 19]: >128 µg/mL
Vancomycin MIC during combined treatment with peptide [7, 19]: >128 µg/mL
Erythromycin MIC during combined treatment with peptide [7, 20]: 16 µg/mL
Linezolid MIC during combined treatment with peptide [7, 20]: 64 µg/mL
Vancomycin MIC during combined treatment with peptide [7, 20]: 64 µg/mL
Erythromycin MIC during combined treatment with peptide [7, 21]: 2 µg/mL
Linezolid MIC during combined treatment with peptide [7, 21]: 16 µg/mL
Vancomycin MIC during combined treatment with peptide [7, 21]: 32 µg/mL
Erythromycin MIC during combined treatment with peptide [7, 22]: 1 µg/mL
Linezolid MIC during combined treatment with peptide [7, 22]: 8 µg/mL
Vancomycin MIC during combined treatment with peptide [7, 22]: 16 µg/mL
Erythromycin MIC during combined treatment with peptide [7, 23]: 0.25 µg/mL
Linezolid MIC during combined treatment with peptide [7, 23]: 4 µg/mL
Vancomycin MIC during combined treatment with peptide [7, 23]: 8 µg/mL
Erythromycin MIC during combined treatment with peptide [7, 24]: 0 µg/mL
Linezolid MIC during combined treatment with peptide [7, 24]: 0 µg/mL
Vancomycin MIC during combined treatment with peptide [7, 24]: 0 µg/mL
Erythromycin MIC during combined treatment with peptide [7, 25]: 0 µg/mL
Linezolid MIC during combined treatment with peptide [7, 25]: 0 µg/mL
Vancomycin MIC during combined treatment with peptide [7, 25]: 0 µg/mL
Antibacterial activity relative to PapMA-1 [8]: twice to four times higher
Minimal inhibitory concentration MIC [9]: 32 µg/mL (≈ 13.5 µM)
Peptide MIC, peptide alone [9]: 32 µg/mL
Minimal inhibitory concentration MIC [10]: 16 µg/mL (≈ 6.77 µM)
Peptide MIC, peptide alone [10]: 16 µg/mL
Antibacterial activity relative to PapMA-1 ([10]; A. baumannii and S. typhimurium): at least twice as high
